Read-outs that look alike come from different tables or passages of the source.
Assays:
[1] = Trans-enterocyte transport of CA in Caco-2 cell monolayer; assay type: in vitro ADME, human; settings: human
Experimental: (§1) Caco-2 were cultured in EMEM complete medium containing 10% FBS, 1% non-essential amino acids, and 1% penicillin-streptomycin double antibody, and the culture conditions were 37 °C, 5% CO2, in a constant temperature incubator [16]. We first established non-toxic dose ranges of CA in Caco-2 cells using MTT assay. Dimethylsulfoxide (DMSO) was used as the vehicle to deliver CA to the cells. The final concentration of DMSO in all experiments was 0.1% (v/v) in cell culture media. Caco-2 cells were seeded in a 96-well plate at a cell density of 5 × 10^4 cells/mL per well, and cultured under 5% CO2 and 37 °C for 24 h. A quantity of 200 μL of medium was added to each well to obtain a series of CA solutions (concentrations of 25, 50, 75, and 100 μmoL). After 48 h of treatment, Caco-2 cells were subjected to the MTT assay as described previously. For the transport study, Caco-2 cells were seeded on the apical compartment (AP) of 12-well Transwell plates at a density of 2 × 10^5 cells/mL. The complete culture medium was added into basolateral (BL) and AP compartments. The basolateral medium was replaced every other day.
(§2) CA was dissolved in HBSS solution at 50, 75, and 100 μM. The HBSS solution containing CA combined with 0.5% Tween 80, 5 mmol/L EDTA or 5% PEG 400 was prepared. The cumulative migration (Qr), apparent permeability coefficient (Papp), and the Papp value of bi-direction transport of CA were calculated according to formulas.
(§3) The 0.5 mL […] containing different concentrations of CA was added to the AP side of the 12-well Transwell plate, and 1.5 mL HBSS solution was added to the BL side. At 0, 0.5, 1, 1.5, 2, 2.5, and 3 h, 0.2 mL medium was taken from the BL side and stored at −80 °C. The TEER value of each Transwell chamber was measured.
(§4) The cryopreserved Transwell samples were transferred to a 15 mL centrifuge tube, and any remaining liquid was fully washed using 1 mL of 50% methanol solution which was also transferred to the 15 mL centrifuge tube. The mixture was vortexed for 1 min, and 6 mL of ethyl acetate solution was added to the tube and vortexed for another 2 min. The mixture was centrifuged at 6000 rpm/min at 4 °C for 10 min. The supernatant was dried under vacuum, dissolved in 5% phosphoric acid methanol solution, and filtered through a 0.22 μm microporous membrane. The concentration of CA was determined by HPLC as described above.

Caco-2 cell monolayer [2] = experiment: as above; assay type: in vitro ADME, human; settings: CA 50–100 μM
Experimental: as §1, §2, §3, §4

Caco-2 cell monolayer [3] = experiment: Effect of verapamil, PEG 400 and EDTA on trans-enterocyte transport of CA; assay type: in vitro ADME, human
Experimental: as §2
The 0.5 mL HBSS solution containing CA (50, 75, and 100 μM) combined with 100 μmoL/L verapamil, 5% PEG 400, or 5 mmol/L EDTA was added to the AP side of the Transwell plate, and 1.5 mL HBSS solution was added to the BL side. The effect of verapamil, Tween 80, PEG 400, and EDTA on the trans-enterocyte of CA was investigated according to the method described above. The TEER value of each Transwell chamber was measured.
as §4

[4] = MTT assay, non-toxic dose range of CA; assay type: cell-based; settings: human, Caco-2 cells, CA 100 μM, vs untreated cells, read-out: cell viability
Experimental: as §1

[5] = Caco-2, CA 75 μM, Average of 0.5-3.0 h
[6] = Caco-2, CA 100 μM, Average of 0.5-3.0 h

CC(C)c1cc2c(c(O)c1O)[C@@]1(C(=O)O)CCCC(C)(C)[C@@H]1CC2 [CA, Carnosic acid] showed an efflux ratio at 3 h, 75 μM ([1]; Caco-2, CA 75 μM, 3.0 h) of 0.61, a Papp A→B at 3 h, 75 μM ([1]; Caco-2, CA 75 μM, 3.0 h, CA alone, read-out: Papp AP to BL) of 0.62 ± 0.01 ×10⁻⁶ cm/s and a Papp A→B at 3 h, 75 μM ([1]; Caco-2, CA 75 μM, 3.0 h, read-out: Papp AP-BL) of 0.62 ± 0.01 ×10⁻⁶ cm/s. It also gave a Papp B→A at 75 μM [1, 5] of 0.66 ± 0.06 ×10⁻⁶ cm/s, an efflux ratio at 75 μM [1, 5] of 0.63 and a Papp A→B at 75 μM ([1]; Caco-2, CA 75 μM, Average of 0.5-3.0 h, CA alone, read-out: Papp AP to BL) of 1.04 ± 0.02 ×10⁻⁶ cm/s. It also gave a Papp A→B at 75 μM ([1]; Caco-2, CA 75 μM, Average of 0.5-3.0 h, read-out: Papp AP-BL) of 1.04 ± 0.05 ×10⁻⁶ cm/s, a Papp B→A at 0.5 h, 100 μM ([1]; Caco-2, CA 100 μM, 0.5 h) of 0.39 ± 0.03 ×10⁻⁶ cm/s and an efflux ratio at 0.5 h, 100 μM ([1]; Caco-2, CA 100 μM, 0.5 h) of 0.35. The Papp A→B at 0.5 h, 100 μM ([1]; Caco-2, CA 100 μM, 0.5 h, CA alone, read-out: Papp AP to BL) was 1.1 ± 0.1 ×10⁻⁶ cm/s, the Papp A→B at 0.5 h, 100 μM ([1]; Caco-2, CA 100 μM, 0.5 h, read-out: Papp AP-BL) was 1.1 ± 0.1 ×10⁻⁶ cm/s and the Papp B→A at 1 h, 100 μM ([1]; Caco-2, CA 100 μM, 1.0 h) was 0.56 ± 0.04 ×10⁻⁶ cm/s. The efflux ratio at 1 h, 100 μM ([1]; Caco-2, CA 100 μM, 1.0 h) was 0.42, the Papp A→B at 1 h, 100 μM ([1]; Caco-2, CA 100 μM, 1.0 h, CA alone, read-out: Papp AP to BL) was 1.32 ± 0.09 ×10⁻⁶ cm/s and the Papp A→B at 1 h, 100 μM ([1]; Caco-2, CA 100 μM, 1.0 h, read-out: Papp AP-BL) was 1.32 ± 0.09 ×10⁻⁶ cm/s. The Papp B→A at 1.5 h, 100 μM ([1]; Caco-2, CA 100 μM, 1.5 h) was 2.53 ± 0.03 ×10⁻⁶ cm/s, the efflux ratio at 1.5 h, 100 μM ([1]; Caco-2, CA 100 μM, 1.5 h) was 1.07 and the Papp A→B at 1.5 h, 100 μM ([1]; Caco-2, CA 100 μM, 1.5 h, CA alone, read-out: Papp AP to BL) was 2.36 ± 0.08 ×10⁻⁶ cm/s. For the same molecule, the Papp A→B at 1.5 h, 100 μM ([1]; Caco-2, CA 100 μM, 1.5 h, read-out: Papp AP-BL) was 2.36 ± 0.08 ×10⁻⁶ cm/s, the Papp B→A at 2 h, 100 μM ([1]; Caco-2, CA 100 μM, 2.0 h) was 1.33 ± 0.05 ×10⁻⁶ cm/s and the Papp A→B at 2 h, 100 μM ([1]; Caco-2, CA 100 μM, 2.0 h, CA alone, read-out: Papp AP to BL) was 0.87 ± 0.02 ×10⁻⁶ cm/s. The efflux ratio at 2 h, 100 μM ([1]; Caco-2, CA 100 μM, 2.0 h, read-out: Efflux Ratio) was 1.52, the Papp A→B at 2 h, 100 μM ([1]; Caco-2, CA 100 μM, 2.0 h, read-out: Papp AP-BL) was 0.87 ± 0.02 ×10⁻⁶ cm/s and the Papp B→A at 2.5 h, 100 μM ([1]; Caco-2, CA 100 μM, 2.5 h) was 1.45 ± 0.01 ×10⁻⁶ cm/s. The efflux ratio at 2.5 h, 100 μM ([1]; Caco-2, CA 100 μM, 2.5 h) was 1.7, the Papp A→B at 2.5 h, 100 μM ([1]; Caco-2, CA 100 μM, 2.5 h, CA alone, read-out: Papp AP to BL) was 0.85 ± 0.05 ×10⁻⁶ cm/s and the Papp A→B at 2.5 h, 100 μM ([1]; Caco-2, CA 100 μM, 2.5 h, read-out: Papp AP-BL) was 0.85 ± 0.05 ×10⁻⁶ cm/s. The Papp B→A at 3 h, 100 μM ([1]; Caco-2, CA 100 μM, 3.0 h) was 1.23 ± 0.03 ×10⁻⁶ cm/s, the efflux ratio at 3 h, 100 μM ([1]; Caco-2, CA 100 μM, 3.0 h) was 1.53 and the Papp A→B at 3 h, 100 μM ([1]; Caco-2, CA 100 μM, 3.0 h, CA alone, read-out: Papp AP to BL) was 0.8 ± 0.09 ×10⁻⁶ cm/s. For the same molecule, the Papp A→B at 3 h, 100 μM ([1]; Caco-2, CA 100 μM, 3.0 h, read-out: Papp AP-BL) was 0.8 ± 0.09 ×10⁻⁶ cm/s, the Papp B→A at 100 μM [1, 6] was 1.24 ± 0.04 ×10⁻⁶ cm/s and the efflux ratio at 100 μM [1, 6] was 1.03. It also gave a Papp A→B at 100 μM ([1]; Caco-2, CA 100 μM, Average of 0.5-3.0 h, CA alone, read-out: Papp AP to BL) of 1.21 ± 0.03 ×10⁻⁶ cm/s, a Papp A→B at 100 μM ([1]; Caco-2, CA 100 μM, Average of 0.5-3.0 h, read-out: Papp AP-BL) of 1.2 ± 0.07 ×10⁻⁶ cm/s and an efflux ratio at 2 h, 100 μM ([1]; Caco-2, CA 100 μM, after 2-hour incubation, read-out: efflux ratios) of 1.52 to 1.7. For the same molecule, the efflux ratio ([1]; Caco-2, CA 50 and 75 μM, except 50 μM after 3-hour incubation, read-out: efflux ratios) was < 1, the Papp A→B at 1 h, 75 μM ([1]; Caco-2, CA 75 μM, 1.0 h) was 1.08 ± 0.04 ×10⁻⁶ cm/s and the Papp B→A at 1 h, 75 μM ([1]; Caco-2, CA 75 μM, 1.0 h) was 0.86 ± 0.05 ×10⁻⁶ cm/s. The efflux ratio at 1 h, 75 μM ([1]; Caco-2, CA 75 μM, 1.0 h) was 0.79, the Papp ([1]; Caco-2, CA 50–100 μM, 0.5-3 h, read-out: Papp values in both the AP-BL and BL-AP directions) was 0.12 to 2.53 ×10⁻⁶ cm/s and the permeability classification (Caco-2 cell monolayer [2]) was “moderately permeable”. For the same molecule, the “increase of Papp (AP to BL) in the presence of EDTA vs control” value (Caco-2 cell monolayer [3]; 5 mmol/L EDTA) was ~ 1.5 fold, the “active efflux / P-gp substrate status” value (Caco-2 cell monolayer [3]; from effect of verapamil and PEG 400 on Papp (AP to BL)) was “could be a substrate of P-gp” and the viability at 48 h, 100 μM [4] was > 90%.

Source: publication PMC8698657, “Absorption and Transport Characteristics and Mechanisms of Carnosic Acid” (Biology, 2021)
